Patent publication US6919379B2, “Compounds useful in reflux disease” (AstraZeneca AB, priority 2001, dated 2005)

| SMILES | melting point [°C] |
| --- | --- |
| NC[C@@H](F)CS(=O)O | 136 to 138 |
| NC[C@H](O)CS(=O)O [Example 1, (2S)-(3-Amino-2-hydroxypropyl)sulphinic acid] | 206 to 208 |
| NC[C@@H](O)CS(=O)O [Example 2, (2R)-(3-Amino-2-hydroxypropyl)sulphinic acid] | 210 |
